According to patent publication US6172079A, “5-substituted-3-oxadiazolyl-1,6-naphthyridin-2(1H)-one derivatives” (Dainippon Pharmaceutical Co., Ltd., priority 1997, dated 2001):

Experiments:
GABAA receptor = conditions: background statement; cited from earlier work
benzodiazepine receptor = experiment: Benzodiazepine Receptor Binding Assay; conditions: read-out: BZP-receptor Binding IC50; [3H]-diazepam 1.5 nM; rat brain crude synaptosome membrane; 0° C., 20 min
[1] = test system: ddY male mice (pentylentetrazol-induced convulsion); experiment: Test of Increasing Activity on Pentylentetrazol-induced Convulsion; assay type: in vivo; conditions: Mus musculus, 0.5 h, po, pentylentetrazol 70 mg/kg s.c. 15 min later, read-out: Effects (number of animals) with increased pentylentetrazol-induced convulsion (converted)
Protocol: It is known that benzodiazepine receptor inverse agonists increase convulsion induced by pentylentetrazol [cf. Progress in Neuro-Psychopharmacology and Biological Psychiatry, vol. […] Some compounds of the present invention were tested as to the activities of increasing the pentylentetrazol-induced convulsion.
A test compound (compounds disclosed in working examples) was orally administered to ddY male mice (weight; 22-25 g, five mice/group) in an amount of 5-100 mg/kg. […] The effects were evaluated by the number of mice among five mice, of which the convulsion increasing effects were observed.

[2] = test system: GABAA receptor complex (TBPS binding); experiment: TBPS Binding Assay; parameters: species or system Wistar rats; conditions: [35S]TBPS 0.4 nM, GABA 1 μM, rat cerebral cortex membrane, +% inverse agonistic, 0% antagonistic
Protocol: The TBPS (t-butylbicyclophosphonothionate) binding assay and the preparation of the membrane specimen were done in a similar manner to the method of Biggio, G. et al. [cf. European Journal of Pharmacology, vol.
That is, to the cerebral cortex was added a 50-fold volume of an ice-cooled buffer (a 50 mM Tris-citrate buffer containing 100 mM sodium chloride, pH 7.4) and the mixture was homogenized at 0-4° C. and then centrifuged at 20,000 g for 20 minutes. The pellets thus obtained were once subjected to homogenization in a buffer and centrifugation by the same procedure as above and then kept in freezed state at -80° C. for more than 20 hours. On the test day, the freezed pellets were thawed and then subjected twice to the homogenization-centrifugation procedure as described above.
Subsequently, the filter was moved into a liquid scintillation vial and thereto was added a liquid scintillation cocktail (ACS-II, manufactured by Amersham, USA, 10 ml) and allowed to stand for a fixed period of time. […] Separately, the same procedures were repeated in the presence of Picrotoxin to determine the non-specific binding amount. The non-specific binding amount was deducted from the total binding amount to give the specific binding amount. The binding activity of the test compound was calculated by a variation rate, i.e., a rate of the specific binding amount of the test compound to the specific binding amount in control (using a solvent).

| Compound | IC50 (benzodiazepine receptor) [nM] | TBPS binding Variation Rate [2] [%] | other results |
| --- | --- | --- | --- |
| CCc1c(C(=O)OC)ncc2[nH]c3cc(OC)c(OC)cc3c12 [DMCM, methyl-6,7-dimethoxy-4-ethyl-β-carboline-3-carboxylate] |  |  | uptake of Cl ion into cells (GABAA receptor): increased |
| Cc1nc(-c2cc3c(-c4ccccc4)nccc3[nH]c2=O)no1 [Example 4] | 1.65 | 20 | responders at 10 mg/kg [1]: 80% |
| Cc1nc(-c2cc3c(-c4cccc(F)c4)nccc3[nH]c2=O)no1 [Example 5] | 1.64 | 21 | responders at 5 mg/kg ([1]; 5 mg/kg): 100% |
| Cc1nc(-c2cc3c(-c4ccc(F)cc4)nccc3[nH]c2=O)no1 [Example 6] | 2.98 | 15 | responders at 100 mg/kg [1]: 80% |
| COc1ccc(-c2nccc3[nH]c(=O)c(-c4noc(C)n4)cc23)cc1 [Example 11, 3-(5-Methyl-1,2,4-oxadiazol-3-yl)-5-(4-methoxyphenyl)-1,6-naphthyridin-2(1H)-one] | 9.77 | 21 | responders at 10 mg/kg [1]: 80% |
| CCc1nc(-c2cc3c(C4CC4C)nccc3[nH]c2=O)no1 (stereo not drawn) [Example 18, 3-(5-Ethyl-1,2,4-oxadiazol-3-yl)-5-(2-methylcyclopropyl)-1,6-naphthyridin-2(1H)-one] | 2.04 | 10 | responders at 20 mg/kg [1]: 60% |
| COc1cccc(-c2nccc3[nH]c(=O)c(-c4noc(C)n4)cc23)c1 [Example 86, 3-(5-methyl-1,2,4-oxadiazol-3-yl)-5-(3-methoxyphenyl)-1,6-naphthyridin-2(1H)-one] | 2.21 | 12 | responders at 10 mg/kg [1]: 40% |
| Cc1nc(-c2cc3c(-c4ccccc4Cl)nccc3[nH]c2=O)no1 [Example 88] | 4.63 | 41 | responders at 10 mg/kg [1]: 100% |
| Cc1nc(-c2cc3c(-c4ccccc4C)nccc3[nH]c2=O)no1 [Example 89, 3-(5-Methyl-1,2,4-oxadiazol-3-yl)-5-(2-methylphenyl)-1,6-naphthyridin-2(1H)-one] | 10.5 | 22 | responders at 50 mg/kg [1]: 100% |
| Cc1nc(-c2cc3c(-c4ccncc4)nccc3[nH]c2=O)no1 [Example 94, 3-(5-Methyl-1,2,4-oxadiazol-3-yl)-5-(4-pyridyl)-1,6-naphthyridin-2(1H)-one] | 4.49 | 34 | responders at 50 mg/kg [1]: 80% |
| CCc1nc(-c2cc3c(-c4ccco4)nccc3[nH]c2=O)no1 [Example 102] | 0.81 | 33 | responders at 10 mg/kg [1]: 100% |
| CCc1nc(-c2cc3c(-c4cccs4)nccc3[nH]c2=O)no1 [Example 103, 3-(5-Ethyl-1,2,4-oxadiazol-3-yl)-5-(2-thienyl)-1,6-naphthyridin-2(1H)-one] | 0.83 | 21 | responders at 10 mg/kg [1]: 40% |
| CCc1nc(-c2cc3c(-c4ccsc4)nccc3[nH]c2=O)no1 [Example 105] | 1.08 | 25 | responders at 50 mg/kg [1]: 80% |
| CCc1noc(-c2cc3c(-c4cccs4)nccc3[nH]c2=O)n1 [Example 173, 3-(3-ethyl-1,2,4-oxadiazol-5-yl)-5-(2-thienyl)-1,6-naphthyridin-2(1H)-one] | 0.94 | 18 | responders at 20 mg/kg [1]: 100% |
| Cc1cccc(-c2nccc3[nH]c(=O)c(-c4nc(C)no4)cc23)c1 [Example 183, 3-(3-Methyl-1,2,4-oxadiazol-5-yl)-5-(3-methylphenyl)-1,6-naphthyridin-2(1H)-one] | 1.55 | 8 | responders at 20 mg/kg [1]: 80% |
| Cc1ccc(-c2nccc3[nH]c(=O)c(-c4nc(C)no4)cc23)cc1 [Example 184] |  | 17 | responders at 50 mg/kg [1]: 100% |
| COc1cccc(-c2nccc3[nH]c(=O)c(-c4nc(C)no4)cc23)c1 [Example 186, 3-(3-Methyl-1,2,4-oxadiazol-5-yl)-5-(3-methoxyphenyl)-1,6-naphthyridin-2(1H)-one] | 1.55 | 21 | responders at 50 mg/kg [1]: 80% |

| Compound | IC50 (benzodiazepine receptor) [nM] | TBPS binding Variation Rate [2] [%] | other results |
| --- | --- | --- | --- |
| CCc1noc(-c2cc3c(C)nccc3[nH]c2=O)n1 [Example 191, 3-(3-Ethyl-1,2,4-oxadiazol-5-yl)-5-methyl-1,6-naphthyridin-2(1H)-one] |  | 18 | responders at 10 mg/kg [1]: 100% |
| CCCc1nccc2[nH]c(=O)c(-c3nc(CC)no3)cc12 [Example 192] | 4.22 | 13 | responders at 100 mg/kg [1]: 100% |
| CCc1noc(-c2cc3c(-c4cccc(F)c4)nccc3[nH]c2=O)n1 [Example 200, 3-(3-Ethyl-1,2,4-oxadiazol-5-yl)-5-(3-fluorophenyl)-1,6-naphthyridin-2(1H)-one] | 0.92 | 17 | responders at 50 mg/kg [1]: 80% |
| CCc1noc(-c2cc3c(-c4ccc(OC)cc4)nccc3[nH]c2=O)n1 [Example 210, 3-(3-Ethyl-1,2,4-oxadiazol-5-yl)-5-(4-methoxyphenyl)-1,6-naphthyridin-2(1H)-one] | 3.41 | 15 | responders at 10 mg/kg [1]: 80% |
| CCc1noc(-c2cc3c(-c4ccncc4)nccc3[nH]c2=O)n1 [Example 213, 3-(3-Ethyl-1,2,4-oxadiazol-5-yl)-5-(4-pyridyl)-1,6-naphthyridin-2(1H)-one] | 2.07 | 26 | responders at 10 mg/kg [1]: 100% |
| CCCc1noc(-c2cc3c(-c4ccco4)nccc3[nH]c2=O)n1 [Example 220] | 0.93 |  | responders at 20 mg/kg [1]: 80% |
| CC(C)c1noc(-c2cc3c(-c4ccc(F)cc4)nccc3[nH]c2=O)n1 [Example 228] | 1.59 | -10 |  |
| CC(C)c1noc(-c2cc3c(-c4ccco4)nccc3[nH]c2=O)n1 [Example 229] | 1.12 | 10 |  |
| CC(C)c1nccc2[nH]c(=O)c(-c3nc(C4CC4)no3)cc12 [Example 233] | 1.58 | 31 |  |
| O=c1[nH]c2ccnc(-c3cccc(Cl)c3)c2cc1-c1nc(C2CC2)no1 [Example 240] | 2.51 | -13 |  |
| O=c1[nH]c2ccnc(-c3ccc(Cl)cc3)c2cc1-c1nc(C2CC2)no1 [Example 241] | 6.08 | -14 |  |
| Cc1ccc(-c2nccc3[nH]c(=O)c(-c4nc(C5CC5)no4)cc23)cc1 [Example 244] | 4.12 | -15 |  |
| O=c1[nH]c2ccnc(-c3ccco3)c2cc1-c1nc(C2CC2)no1 [Example 245] | 0.81 | 13 |  |
| O=c1[nH]c2ccnc(-c3ccsc3)c2cc1-c1nc(C2CC2)no1 [Example 247, 3-(3-Cyclopropyl-1,2,4-oxadiazol-5-yl)-5-(3-thienyl)-1,6-naphthyridin-2(1H)-one] | 1.39 | 16 | responders at 50 mg/kg [1]: 80% |
| CNC(=O)c1cc2c(cn1)[nH]c1ccccc12 [FG7142, N-methyl-β-carboline-3-carboxamide] |  |  | uptake of Cl ion into cells (GABAA receptor): increased |
| NCc1cc(=O)[nH]o1 [Muscimol] |  |  | uptake of Cl ion into cells (GABAA receptor): decreased |
| O=C1CN=C(c2ccccc2Cl)c2cc([N+](=O)[O-])ccc2N1 [chlonazepam] |  |  | uptake of Cl ion into cells (GABAA receptor): decreased |
